Results on 32 compounds are retold here after US7491827B2, “Aryl sulfonamides useful as inhibitors of chemokine receptor activity” (Millennium Pharmaceuticals, Inc., priority 2003, dated 2009).

The test addresses T1, cloned human CCR8 receptor stably expressed in L1.2 cells (Homo sapiens, UniProt P51685).
T1 construct: expressed in transfected cells
Put plainly: whole cell binding screen: inhibition of biotinylated human I309 binding to CCR8 (FMAT 8100 HTS). To be noted: biotinylated human I-309, 10 point concentration response starting at 10 μM. The essentials:
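L1.2 murine pre-B cells stably expressing human CCR8 (4.0×10^5 cells/mL) in HBSS/HEPES/fatty-acid-free BSA/azide buffer were mixed with biotinylated human I309 and compounds for 0.5 h, read by FMAT fluorescence. 10-point curves from 10 μM final; percent inhibition normalized to no-inhibitor and 100 nM unlabeled I309 controls.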

Where [1] appears, read: L1.2/hCCR8 cells, read-out: Ki of compounds to inhibit I-309 binding to CCR8.
Setting [2] is: Ki of compounds to inhibit I-309 binding to CCR8, L1.2/hCCR8 cells.

Each structure is given as a SMILES string. Read-outs that look alike come from different tables or passages of the source.

T1 sequence (P51685 whole entry): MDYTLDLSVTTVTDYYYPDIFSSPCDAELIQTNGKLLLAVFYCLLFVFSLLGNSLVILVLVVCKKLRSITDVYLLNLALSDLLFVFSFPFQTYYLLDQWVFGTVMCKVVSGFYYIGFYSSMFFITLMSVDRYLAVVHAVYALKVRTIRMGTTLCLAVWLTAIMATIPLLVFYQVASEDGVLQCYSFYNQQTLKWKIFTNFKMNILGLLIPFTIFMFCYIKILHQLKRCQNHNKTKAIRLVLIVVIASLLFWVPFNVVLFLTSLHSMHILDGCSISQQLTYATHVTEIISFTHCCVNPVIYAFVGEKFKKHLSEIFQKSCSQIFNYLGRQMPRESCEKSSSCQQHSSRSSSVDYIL

On to `Cc1ccccc1C(=O)Nc1ccc(S(=O)(=O)N[C@@H]2[C@H](C)CN(C(=O)N(C)C)C[C@@H]2C)c2ccccc12` [Compound C-71, (±)-(cis,cis)-3,5-Dimethyl-4-[4-(2-methyl-benzoylamino)-naphthalene-1-sulfonylamino]-piperidine-1-carboxylic acid dimethylamide], for which, under setting [1], the Ki was < 1000 nM.

Take `Cc1ccccc1C(=O)Nc1ccc(S(=O)(=O)NC2CCN(C(=O)N(C)C)C2)c2c1CCCC2` (racemic) [Compound E-32, (±)-3-[4-(2-Methyl-benzoylamino)-5,6,7,8-tetrahydro-naphthalene-1-sulfonylamino]-pyrrolidine-1-carboxylic acid dimethylamide]: the inhibitory constant (Ki) under setting [1] is < 500 nM.

As for `CCCC(=O)N1CCC(NS(=O)(=O)c2cccc3c(C(=O)Nc4cccc(C)c4C)cccc23)CC1` [Compound H-37, 5-(1-Butyryl-piperidin-4-ylsulfamoyl)-naphthalene-1-carboxylic acid (2,3-dimethyl-phenyl)-amide], the Ki under setting [1] was < 500 nM.

As to `CCOC(=O)c1ccc(NS(=O)(=O)c2cccc3c(NC(=O)c4ccccc4C)cccc23)cc1` [Compound H-19, 4-[5-(2-Methyl-benzoylamino)-naphthalene-1-sulfonylamino]-benzoic acid ethyl ester], the Ki under setting [1] is < 30000 nM.

Take `CCCC(=O)N1CCC(C)(NS(=O)(=O)c2ccc(NC(=O)c3ccccc3C)c3ccccc23)CC1` [Compound C-27, N-[4-(1-Butyryl-4-methyl-piperidin-4-ylsulfamoyl)-naphthalen-1-yl]-2-methyl-benzamide]: under setting [1], the Ki was < 500 nM.

Turning to `CCOC(=O)N1C[C@@H](C)[C@@H](NS(=O)(=O)c2ccc(NC(=O)c3ccccc3C)c3ccccc23)[C@@H](C)C1` [Compound C-70, (±)-(cis,cis)-3,5-Dimethyl-4-[4-(2-methyl-benzoylamino)-naphthalene-1-sulfonylamino]-piperidine-1-carboxylic acid ethyl ester], under setting [1], the Ki is < 1000 nM.

Take `O=C(Nc1ccc(S(=O)(=O)NC2CCNCC2)c2ccccc12)c1ccccc1` [Compound C-1, N-[4-(Piperidin-4-ylsulfamoyl)-naphthalen-1-yl]-benzamide]: under setting [2], the Ki is < 1000 nM.

On to `CCCC(=O)N1CC[C@H](NS(=O)(=O)c2ccc(NC(=O)c3ccccc3C)c3ccccc23)[C@@H](CO)C1` (racemic) [Compound C-76, (±)-(trans)-N-[4-(1-butyryl-3-hydroxymethyl-piperidin-4-ylsulfamoyl)-naphthalen-1-yl]-2-methyl-benzamide], for which the Ki under setting [1] was < 500 nM.

Regarding `CCNC(=O)N1CCC(C)(NS(=O)(=O)c2ccc(NC(=O)c3ccccc3C)c3ccccc23)CC1` [Compound C-24, 4-Methyl-4-[4-(2-methyl-benzoylamino)-naphthalene-1-sulfonylamino]-piperidine-1-carboxylic acid ethylamide], the Ki under setting [1] is < 500 nM.

In the case of `CCOC(=O)N1CC[C@H](NS(=O)(=O)c2ccc(NC(=O)c3ncccc3C)c3ccccc23)[C@H](C)C1` (racemic) [Compound D-7, (±)-(cis)-3-Methyl-4-{4-[(3-methyl-pyridine-2-carbonyl)-amino]-naphthalene-1-sulfonylamino}-piperidine-1-carboxylic acid ethyl ester], the Ki under setting [1] was < 500 nM.

In the case of `CCCC(=O)N1CCC(NS(=O)(=O)c2ccc(NC(=O)c3ccccc3Cl)c3ccccc23)CC1` [Compound C-105, N-[4-(1-Butyryl-piperidin-4-ylsulfamoyl)-naphthalen-1-yl]-2-chloro-benzamide], the Ki under setting [1] is < 500 nM.

`Cc1ccccc1C(=O)Nc1ccc(S(=O)(=O)N[C@H]2CCN(Cc3ccccc3)C[C@H]2C)c2c1CCC2` (racemic) [Compound H-74, (±)-cis-N-[7-(1-Benzyl-3-methyl-piperidin-4-ylsulfamoyl)-indan-4-yl]-2-methyl-benzamide]: the Ki under setting [1] is < 1000 nM.

On to `CCOC(=O)N1CCC(NS(=O)(=O)c2ccc(NC(=O)c3ccccc3C#N)c3ccccc23)CC1` [Compound B-26, 4-[4-(2-Cyano-benzoylamino)-naphthalene-1-sulfonylamino]-piperidine-1-carboxylic acid ethyl ester], for which the Ki under setting [1] is < 500 nM.

Turning to `CCOC(=O)N1CCC(NS(=O)(=O)c2ccc(NC(=O)C3CCCCC3)c3ccccc23)CC1` [Compound B-12, 4-[4-(Cyclohexanecarbonyl-amino)-naphthalene-1-sulfonylamino]-piperidine-1-carboxylic acid ethyl ester], the Ki under setting [1] is < 500 nM.

As to `Cc1ccccc1C(=O)NCc1ccc(S(=O)(=O)NC2CCCCC2)c2ccccc12` [Compound G-5, N-(4-Cyclohexylsulfamoyl-naphthalen-1-ylmethyl)-2-methyl-benzamide], the inhibition constant (Ki) under setting [1] was < 1000 nM.

As to `CCOC(=O)N1CCC(NS(=O)(=O)c2cccc3c(NC(=O)c4ccccc4)cccc23)CC1` [Compound H-6, 4-(5-Benzoylamino-naphthalene-1-sulfonylamino)-piperidine-1-carboxylic acid ethylester], the Ki under setting [2] is < 500 nM.

As for `O=C(Nc1cccc2c(S(=O)(=O)NC3CCCCC3)cccc12)c1ccccc1` [Compound H-5, N-(5-Cyclohexylsulfamoyl-naphthalen-1-yl)-benzamide], the Ki under setting [1] was < 500 nM.

Turning to `CCOC(=O)N1CCC(NS(=O)(=O)c2ccc(CNCc3ccccc3C)c3ccccc23)CC1` [Compound G-11, 4-{4-[(2-Methyl-benzylamino)-methyl]-naphthalene-1-sulfonylamino}-piperidine-1-carboxylic acid ethyl ester], the Ki under setting [1] is < 500 nM.

For the compound `CCN(CC)CC(=O)N1CC[C@@H](NS(=O)(=O)c2ccc(NC(=O)c3ccccc3C)c3ccccc23)[C@@H](C)C1` (racemic) [Compound C-144, (±)-N-{4-[1-(2-diethylamino-acetyl)-3-cis-methyl-piperidin-4-ylsulfamoyl]-naphthalen-1-yl}-2-methyl-benzamide], the inhibition constant (Ki) under setting [1] is < 30000 nM.

For `Cc1ccccc1C(=O)Nc1ccc(S(=O)(=O)N[C@@H]2[C@H](C)CN(Cc3ccccc3)C[C@@H]2C)c2ccccc12` [Compound A-46, (±)-(cis, cis)-N-[4-(1-Benzyl-3,5-dimethyl-piperidin-4-ylsulfamoyl)-naphthalen-1-yl]-2-methyl-benzamide], the Ki under setting [1] is < 30000 nM.

Turning to `CCOC(=O)N1CCC(NS(=O)(=O)c2ccc(N3C(=O)c4ccccc4C3=O)c3ccccc23)CC1` [Compound A-18, 4-[4-(1,3-Dioxo-1,3-dihydro-isoindol-2-yl)-naphthalene-1-sulfonylamino]-piperidine-1-carboxylic acid ethyl ester], the Ki under setting [1] is < 500 nM.

Consider `CCCC(=O)N1CCC(NS(=O)(=O)c2cc3c(c(NC(=O)c4ccccc4Cl)c2)CCCC3)CC1` [Compound H-63, N-[3-(1-Butyryl-piperidin-4-ylsulfamoyl)-5,6,7,8-tetrahydro-naphthalen-1-yl]-2-chloro-benzamide], for which the Ki under setting [1] was < 30000 nM.

Take `Cc1ccccc1C(=O)Nc1ccc(S(=O)(=O)NC2CCN(S(=O)(=O)c3ccccc3)CC2)c2ccccc12` [Compound C-58, N-[4-(1-Benzenesulfonyl-piperidin-4-ylsulfamoyl)-naphthalen-1-yl]-2-methyl-benzamide]: the inhibitory constant (Ki) under setting [1] is < 500 nM.

Regarding `CCOC(=O)N1CCC(NS(=O)(=O)c2cccc3c(C(=O)Nc4ccccc4C)cccc23)CC1` [Compound H-28, 4-(5-o-Tolylcarbamoyl-naphthalene-1-sulfonylamino)-piperidine-1-carboxylic acid ethyl ester], the Ki under setting [1] is < 500 nM.

Take `Cc1ccccc1NC(=O)c1ccc(S(=O)(=O)NC2CCN(C(=O)OC(C)(C)C)CC2)c2ccccc12` [Compound F-4, 4-(4-o-Tolylcarbamoyl-naphthalene-1-sulfonylamino)-piperidine-1-carboxylic acid tert-butyl ester]: the Ki under setting [1] is < 500 nM.

In the case of `CCOC(=O)N1CCC(NS(=O)(=O)c2ccc(CNCc3ccncc3)c3ccccc23)CC1` [Compound G-15, 4-(4-{[(Pyridin-4-ylmethyl)-ainno]-methyl}-naphthalene-1-sulfonylamino)-piperidine-1-carboxylic acid ethyl ester], the inhibition constant Ki under setting [1] was < 1000 nM.

`CCc1ccc(NS(=O)(=O)c2cccc3c(NC(=O)c4ccccc4)cccc23)cc1` [Compound H-2, N-[5-(4-Ethyl-phenylsulfamoyl)-naphthalen-1-yl]-benzamide]: the Ki under setting [1] was < 30000 nM.

As for `CCOC(=O)N1CCC(NS(=O)(=O)c2ccc(CNCc3ccccc3Cl)c3ccccc23)CC1` [Compound G-21, 4-{4-[(2-Chloro-benzylamino)-methyl]-naphthalene-1-sulfonylamino}-piperidine-1-carboxylic acid ethyl ester], the inhibitory constant (Ki) under setting [1] is < 500 nM.

Turning to `CCOC(=O)N1CC[C@H](NS(=O)(=O)c2ccc(NC(=O)c3ccccc3C)c3ncccc23)[C@H](C)C1` [Compound J-40, (3R, 4S)-3-Methyl-4-[8-(2-methyl-benzoylamino)-quinoline-5-sulfonylamino]-piperidine-1-carboxylic acid ethyl ester], the Ki under setting [1] is < 500 nM.

Regarding `CCCC(=O)N1CC[C@H](NS(=O)(=O)c2ccc(NC(=O)c3ccccc3C)c3ccccc23)[C@@H](C)C1` (racemic) [Compound C-19, (±)-trans-N-[4-(1-Butyryl-3-methyl-piperidin-4-ylsulfamoyl)-naphthalen-1-yl]-2-methyl-benzamide], under setting [1], the Ki is < 500 nM.

On to `Cc1ccccc1C(=O)Nc1ccc(S(=O)(=O)NC2CCNCC2)c2c1CCC2` [Compound H-67, 2-Methyl-N-[7-(piperidin-4-ylsulfamoyl)-indan-4-yl]-benzamide], for which the inhibition constant (Ki) under setting [1] was < 1000 nM.

Regarding `Cc1ccccc1C(=O)Nc1ccc(S(=O)(=O)N[C@H]2CCN(C(=O)OC(C)C)C[C@H]2C)c2ccccc12` (racemic) [Compound C-13, (±)-cis-3-Methyl-4-[4-(2-methyl-benzoylamino)-naphthalene-1-sulfonylamino]-piperidine-1-carboxylic acid isopropyl ester], the inhibition constant (Ki) under setting [1] was < 500 nM.

By Ki is commonly meant a dissociation constant, usually derived from enzyme kinetics or from competition with a known ligand.
